# Measurements: ChEMBL document CHEMBL1201862, “PubChem BioAssay data set” (2004)
#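 Exposure lasted 48 hours, with cells grown in 96-well plates and compounds tested at five concentrations. GI50: concentration for 50% inhibition of growth.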 Active and inactive are the calls of the source. Cut-off read from the data, not from the text of the source: active = GI50 up to about 1.1 µM and inactive = higher.
# What was measured:
# Assay in all cases: DTP human tumour cell line panel, 48 h
# 786-0 = tested on: 786-0
# ACHN = tested on: ACHN
# EKVX = tested on: EKVX
# COLO 205 = tested on: COLO 205
# UO-31 = tested on: UO-31
# SK-MEL-5 = tested on: SK-MEL-5
# BT-549 = tested on: BT-549
# UACC-62 = tested on: UACC-62
# MCF7 = tested on: MCF7
# SNB-75 = tested on: SNB-75
# HL-60 = tested on: HL-60
# NCI/ADR-RES = tested on: NCI/ADR-RES
# NCI-H522 = tested on: NCI-H522
# CAKI-1 = tested on: CAKI-1
# SK-OV-3 = tested on: SK-OV-3
# RPMI-8226 = tested on: RPMI-8226
# SN12C = tested on: SN12C
# NCI-H23 = tested on: NCI-H23
# SK-MEL-2 = tested on: SK-MEL-2
Structure (SMILES),GI50 (786-0),GI50 (ACHN),GI50 (EKVX),GI50 (COLO 205),GI50 (UO-31),GI50 (SK-MEL-5),GI50 (BT-549),GI50 (UACC-62),GI50 (MCF7),GI50 (SNB-75),GI50 (HL-60),GI50 (NCI/ADR-RES),GI50 (NCI-H522),GI50 (CAKI-1),GI50 (SK-OV-3),GI50 (RPMI-8226),GI50 (SN12C),GI50 (NCI-H23),GI50 (SK-MEL-2)
CC(C)CN(CC#N)CC(C)C,> 100 µM (inactive),> 100 µM (inactive),> 100 µM (inactive),> 100 µM (inactive),> 100 µM (inactive),> 100 µM (inactive),> 100 µM (inactive),> 100 µM (inactive),> 100 µM (inactive),> 100 µM (inactive),> 100 µM (inactive),> 100 µM (inactive),> 100 µM (inactive),> 100 µM (inactive),> 100 µM (inactive),48.9 µM (inactive),> 100 µM (inactive),> 100 µM (inactive),–
Cc1cc2c(cc1Cl)SC(NNc1ccc([N+](=O)[O-])cc1)=NS2(=O)=O,> 10 µM (inactive),> 10 µM (inactive),> 10 µM (inactive),> 10 µM (inactive),> 10 µM (inactive),> 10 µM (inactive),> 10 µM (inactive),> 10 µM (inactive),> 10 µM (inactive),> 10 µM (inactive),> 10 µM (inactive),> 10 µM (inactive),> 10 µM (inactive),> 10 µM (inactive),> 10 µM (inactive),> 10 µM (inactive),> 10 µM (inactive),> 10 µM (inactive),> 10 µM (inactive)
CSc1nc(SC)c2c(CN=[N+]=[N-])c(Br)n(Cc3ccccc3)c2n1,> 100 µM (inactive),> 100 µM (inactive),> 100 µM (inactive),> 100 µM (inactive),> 100 µM (inactive),> 100 µM (inactive),> 100 µM (inactive),47.3 µM (inactive),> 100 µM (inactive),51.3 µM (inactive),62.1 µM (inactive),> 100 µM (inactive),> 100 µM (inactive),> 100 µM (inactive),24.1 µM (inactive),> 100 µM (inactive),> 100 µM (inactive),> 100 µM (inactive),> 100 µM (inactive)
Cc1ccc(/C=N/Nc2cc(C)c3cccc(C)c3n2)s1,2.74 µM (inactive),16.5 µM (inactive),13.5 µM (inactive),6.98 µM (inactive),5.79 µM (inactive),9.86 µM (inactive),5.45 µM (inactive),17.9 µM (inactive),4.11 µM (inactive),11.9 µM (inactive),3.28 µM (inactive),2.99 µM (inactive),2.81 µM (inactive),15.8 µM (inactive),16.4 µM (inactive),6.67 µM (inactive),9.08 µM (inactive),12.2 µM (inactive),16 µM (inactive)
Nc1ncnc2c1ccn2CC#CCO,> 100 µM (inactive),> 100 µM (inactive),> 100 µM (inactive),> 100 µM (inactive),> 100 µM (inactive),> 100 µM (inactive),> 100 µM (inactive),> 100 µM (inactive),> 100 µM (inactive),> 100 µM (inactive),93.8 µM (inactive),> 100 µM (inactive),> 100 µM (inactive),> 100 µM (inactive),> 100 µM (inactive),> 100 µM (inactive),> 100 µM (inactive),> 100 µM (inactive),> 100 µM (inactive)
Cc1ccc(NC(=O)c2cc(S(=O)(=O)Nc3n[nH]c(=O)[nH]3)c(SSc3cc(Cl)c(C(=O)Nc4ccc(C)cc4)cc3S(=O)(=O)Nc3n[nH]c(=O)[nH]3)cc2Cl)cc1,> 100 µM (inactive),> 100 µM (inactive),> 100 µM (inactive),> 100 µM (inactive),> 100 µM (inactive),> 100 µM (inactive),> 100 µM (inactive),0.838 µM (active),> 100 µM (inactive),> 100 µM (inactive),> 100 µM (inactive),> 100 µM (inactive),> 100 µM (inactive),> 100 µM (inactive),> 100 µM (inactive),> 100 µM (inactive),> 100 µM (inactive),> 100 µM (inactive),> 100 µM (inactive)
N/N=C(\N)SCCCCCCCCCCS/C(N)=N/N,31.5 µM (inactive),20.7 µM (inactive),31.1 µM (inactive),14.6 µM (inactive),15.1 µM (inactive),21 µM (inactive),19.5 µM (inactive),21.5 µM (inactive),23.6 µM (inactive),–,17.3 µM (inactive),21.1 µM (inactive),17.1 µM (inactive),36.1 µM (inactive),< 0.01 µM (active),23.3 µM (inactive),34.9 µM (inactive),25.8 µM (inactive),16.7 µM (inactive)
CC1=C(C)C1[N+](=O)[O-],> 100 µM (inactive),> 100 µM (inactive),> 100 µM (inactive),> 100 µM (inactive),> 100 µM (inactive),> 100 µM (inactive),> 100 µM (inactive),> 100 µM (inactive),> 100 µM (inactive),26.1 µM (inactive),43.9 µM (inactive),> 100 µM (inactive),> 100 µM (inactive),> 100 µM (inactive),> 100 µM (inactive),> 100 µM (inactive),> 100 µM (inactive),> 100 µM (inactive),–
COC(=O)c1c(O)ccc2c1c1cc3ccccc3c(O)c1n2CCc1ccc(OC)c(OC)c1,91.8 µM (inactive),83.4 µM (inactive),> 100 µM (inactive),15.5 µM (inactive),84.1 µM (inactive),26.2 µM (inactive),16.7 µM (inactive),> 100 µM (inactive),65.8 µM (inactive),–,65.9 µM (inactive),51.6 µM (inactive),21.1 µM (inactive),68.7 µM (inactive),> 100 µM (inactive),18.9 µM (inactive),> 100 µM (inactive),93.1 µM (inactive),58.2 µM (inactive)
CN(CCCN(C)Cc1ccc(Cl)c(Cl)c1)CCN1CCCC1,13.5 µM (inactive),27.8 µM (inactive),36.3 µM (inactive),9.35 µM (inactive),4.78 µM (inactive),6.92 µM (inactive),30.8 µM (inactive),1.85 µM (inactive),18.4 µM (inactive),19.1 µM (inactive),23.4 µM (inactive),> 66.5 µM (inactive),16 µM (inactive),29.2 µM (inactive),75.3 µM (inactive),4.28 µM (inactive),37.8 µM (inactive),26.5 µM (inactive),11 µM (inactive)
CC(=O)C1=CC=C/C1=N\Nc1ccccc1,4.31 µM (inactive),11.2 µM (inactive),5.6 µM (inactive),9.42 µM (inactive),13.1 µM (inactive),15.6 µM (inactive),11 µM (inactive),6.97 µM (inactive),1.29 µM (inactive),9.33 µM (inactive),0.647 µM (active),5.28 µM (inactive),4.71 µM (inactive),3.91 µM (inactive),16.6 µM (inactive),1.98 µM (inactive),5.81 µM (inactive),9.06 µM (inactive),13.4 µM (inactive)
COc1ccc2c(c1O)[C@@]13C=C(O)C(=O)C=C1[C@@H](C2)N(C)CC3,75 µM (inactive),43.6 µM (inactive),> 100 µM (inactive),> 100 µM (inactive),51.9 µM (inactive),60.3 µM (inactive),> 100 µM (inactive),> 100 µM (inactive),65.2 µM (inactive),54 µM (inactive),46.1 µM (inactive),51.9 µM (inactive),28.8 µM (inactive),88.5 µM (inactive),> 100 µM (inactive),> 100 µM (inactive),50 µM (inactive),57.4 µM (inactive),47.9 µM (inactive)
CC(O)(Cc1ccccc1C#N)Cc1ccccc1C#N,> 100 µM (inactive),88.5 µM (inactive),> 100 µM (inactive),70.8 µM (inactive),–,57.3 µM (inactive),38.5 µM (inactive),59.8 µM (inactive),> 100 µM (inactive),37 µM (inactive),4 µM (inactive),27.9 µM (inactive),> 100 µM (inactive),> 100 µM (inactive),> 100 µM (inactive),–,> 100 µM (inactive),–,> 100 µM (inactive)
CSC1=C(C#N)C(=O)N(c2ccc(C)cc2)C(=S)C1C#N (configuration not stated),> 100 µM (inactive),> 100 µM (inactive),> 100 µM (inactive),> 100 µM (inactive),–,> 100 µM (inactive),> 100 µM (inactive),> 100 µM (inactive),> 100 µM (inactive),77.1 µM (inactive),63.8 µM (inactive),> 100 µM (inactive),> 100 µM (inactive),> 100 µM (inactive),> 100 µM (inactive),–,> 100 µM (inactive),–,> 100 µM (inactive)
CCOC(=O)c1cn2c(ccc3sc4ccccc4c(=O)c32)n1,> 100 µM (inactive),> 100 µM (inactive),> 100 µM (inactive),> 100 µM (inactive),> 100 µM (inactive),> 100 µM (inactive),> 100 µM (inactive),–,84.3 µM (inactive),> 100 µM (inactive),> 100 µM (inactive),> 100 µM (inactive),> 100 µM (inactive),> 100 µM (inactive),–,> 100 µM (inactive),> 100 µM (inactive),> 100 µM (inactive),–
